{"source": "paper PMC6979384", "about": "“Characterization of the plant homeodomain (PHD) reader family for their histone tail interactions” (Epigenetics & Chromatin, 2020)", "assay_in_all_cases": "Histone peptide microarray", "format_in_all_cases": "binding, human", "key": {"[1]": {"system": "KDM4C (TTP)", "conditions": "GST-tagged KDM4C (TTP = Tandem Tudor domain + PHD); sheet Array Heatmap; each array performed twice, total n = 4", "description": "(§1) To more comprehensively define the histone interactions of the 31 PHD readers identified from the domain microarray analyses, we probed each on an alternate microarray platform containing a library of 293 synthetic histone peptides with single or combinatorial PTMs (Additional file 2: Figure S4 and Additional file 3: Table S2).\n(§2) The 31 GST-tagged PHD readers identified in the PHD finger domain array were expressed and purified as previously. Histone peptide arrays and peptide pulldown assays were conducted as recently described (specifically, the optimized protocol from Petell et al. for the former).\n(§3) Supplementary file 13072_2020_328_MOESM3_ESM.xlsx: Additional file 3: Table S2. […] Excel Tab Peptide List is a compiled list of the entire 293 histone peptide library with amino acid sequence ranges. […] Each number corresponds to the peptide number designated in Peptide List. Excel Tab Average Signals is a compiled set of binding data: chromatin reader at 0.5 μM vs. entire 293 peptide library. Data is presented as the average and standard deviation of 4 replicates. The average signals are colored to indicate signal intensity with green being strong and white being weak/low. […] Key: red= stronger relative binding; blue = weaker relative binding. Excel Tab Array info summary is a table summarizing the domains, sequence coverage, array signal range, and noise for each of the GST-tagged readers assayed on the peptide microarrays."}, "[2]": {"system": "KDM5A (1)", "conditions": "GST-tagged KDM5A (1); sheet Array Heatmap; each array performed twice, total n = 4", "description": "as §1, §2, §3"}, "[3]": {"system": "AIRE (PP)", "conditions": "GST-tagged AIRE (PP); sheet Array Heatmap; each array performed twice, total n = 4", "description": "as §1, §2, §3"}, "[4]": {"system": "KDM5B (3)", "conditions": "GST-tagged KDM5B (3); sheet Array Heatmap; each array performed twice, total n = 4", "description": "as §1, §2, §3"}, "[5]": {"system": "DPF2 (PPC2W2)", "conditions": "GST-tagged DPF2 (PPC2W2 = Dual PHD + C2W2-type Zn-finger); sheet Array Heatmap; each array performed twice, total n = 4", "description": "as §1, §2, §3"}, "[6]": {"system": "KDM5A (3)", "conditions": "GST-tagged KDM5A (3); sheet Array Heatmap; each array performed twice, total n = 4", "description": "as §1, §2, §3"}, "[7]": {"system": "PHF8", "conditions": "GST-tagged PHF8; sheet Array Heatmap; each array performed twice, total n = 4", "description": "as §1, §2, §3"}, "[8]": {"system": "PHF13", "conditions": "GST-tagged PHF13; sheet Array Heatmap; each array performed twice, total n = 4", "description": "as §1, §2, §3"}, "[9]": {"system": "PHRF1 (RP)", "conditions": "GST-tagged PHRF1 (RP); sheet Array Heatmap; each array performed twice, total n = 4", "description": "as §1, §2, §3"}, "[10]": {"system": "BAZ2B", "conditions": "GST-tagged BAZ2B; sheet Array Heatmap; each array performed twice, total n = 4", "description": "as §1, §2, §3"}, "[11]": {"system": "KDM7A", "conditions": "GST-tagged KDM7A; sheet Array Heatmap; each array performed twice, total n = 4", "description": "as §1, §2, §3"}, "[12]": {"system": "CHD4 (PPCC)", "conditions": "GST-tagged CHD4 (PPCC = Dual PHD + Dual Chromodomain); sheet Array Heatmap; each array performed twice, total n = 4", "description": "as §1, §2, §3"}, "[13]": {"system": "TAF3", "conditions": "GST-tagged TAF3; sheet Array Heatmap; each array performed twice, total n = 4", "description": "as §1, §2, §3"}, "[14]": {"system": "PHF21A", "conditions": "GST-tagged PHF21A; sheet Array Heatmap; each array performed twice, total n = 4", "description": "as §1, §2, §3"}, "[15]": {"system": "CHD5 (PCC)", "conditions": "GST-tagged CHD5 (PCC = PHD + Dual Chromodomain); sheet Array Heatmap; each array performed twice, total n = 4", "description": "as §1, §2, §3"}, "[16]": {"system": "BPTF (PB)", "conditions": "GST-tagged BPTF (PB = PHD + Bromodomain); sheet Array Heatmap; each array performed twice, total n = 4", "description": "as §1, §2, §3"}, "[17]": {"system": "CHD5 (PPCC)", "conditions": "GST-tagged CHD5 (PPCC = Dual PHD + Dual Chromodomain); sheet Array Heatmap; each array performed twice, total n = 4", "description": "as §1, §2, §3"}, "[18]": {"system": "MLL5", "conditions": "GST-tagged MLL5; sheet Array Heatmap; each array performed twice, total n = 4", "description": "as §1, §2, §3"}, "[19]": {"system": "PHF23", "conditions": "GST-tagged PHF23; sheet Array Heatmap; each array performed twice, total n = 4", "description": "as §1, §2, §3"}, "[20]": {"system": "ING1", "conditions": "GST-tagged ING1; sheet Array Heatmap; each array performed twice, total n = 4", "description": "as §1, §2, §3"}, "[21]": {"system": "ING5", "conditions": "GST-tagged ING5; sheet Array Heatmap; each array performed twice, total n = 4", "description": "as §1, §2, §3"}, "[22]": {"system": "MORC3 (CW)", "conditions": "GST-tagged MORC3 (CW = CW-type Zn-finger); sheet Array Heatmap; each array performed twice, total n = 4", "description": "as §1, §2, §3"}, "[23]": {"system": "ING2", "conditions": "GST-tagged ING2; sheet Array Heatmap; each array performed twice, total n = 4", "description": "as §1, §2, §3"}, "[24]": {"system": "TRIM66 (PB)", "conditions": "GST-tagged TRIM66 (PB = PHD + Bromodomain); sheet Array Heatmap; each array performed twice, total n = 4", "description": "as §1, §2, §3"}, "[25]": {"system": "PHF2", "conditions": "GST-tagged PHF2; sheet Array Heatmap; each array performed twice, total n = 4", "description": "as §1, §2, §3"}, "[26]": {"system": "KDM5B (1)", "conditions": "GST-tagged KDM5B (1); sheet Array Heatmap; each array performed twice, total n = 4", "description": "as §1, §2, §3"}, "[27]": {"system": "DIDO1", "conditions": "GST-tagged DIDO1; sheet Array Heatmap; each array performed twice, total n = 4", "description": "as §1, §2, §3"}, "[28]": {"system": "ING4", "conditions": "GST-tagged ING4; sheet Array Heatmap; each array performed twice, total n = 4", "description": "as §1, §2, §3"}, "[29]": {"system": "RAG2", "conditions": "GST-tagged RAG2; sheet Array Heatmap; each array performed twice, total n = 4", "description": "as §1, §2, §3"}, "[30]": {"system": "ING3", "conditions": "GST-tagged ING3; sheet Array Heatmap; each array performed twice, total n = 4", "description": "as §1, §2, §3"}, "[31]": {"system": "SP140L", "conditions": "GST-tagged SP140L; sheet Array Heatmap; each array performed twice, total n = 4", "description": "as §1, §2, §3"}}, "data": [{"substance": "H3K4me1 + K9ac + K14ac + K18ac: H3 1-20", "values": [{"measurement": "Array Heatmap signal (histone peptide microarray)", "setting": "[1]", "value": 0.5283}, {"measurement": "Array Heatmap signal (histone peptide microarray)", "setting": "[2]", "value": 0.5061}, {"measurement": "Array Heatmap signal (histone peptide microarray)", "setting": "[3]", "value": 0.4902}, {"measurement": "Array Heatmap signal (histone peptide microarray)", "setting": "[4]", "value": 0.5937}, {"measurement": "Array Heatmap signal (histone peptide microarray)", "setting": "[5]", "value": 0.8362}, {"measurement": "Array Heatmap signal (histone peptide microarray)", "setting": "[6]", "value": 0.582}, {"measurement": "Array Heatmap signal (histone peptide microarray)", "setting": "[7]", "value": 0.4393}, {"measurement": "Array Heatmap signal (histone peptide microarray)", "setting": "[8]", "value": 0.6456}, {"measurement": "Array Heatmap signal (histone peptide microarray)", "setting": "[9]", "value": 0.6901}, {"measurement": "Array Heatmap signal (histone peptide microarray)", "setting": "[10]", "value": 0.6125}, {"measurement": "Array Heatmap signal (histone peptide microarray)", "setting": "[11]", "value": 0.3735}, {"measurement": "Array Heatmap signal (histone peptide microarray)", "setting": "[12]", "value": 0.5742}, {"measurement": "Array Heatmap signal (histone peptide microarray)", "setting": "[13]", "value": 0.2961}, {"measurement": "Array Heatmap signal (histone peptide microarray)", "setting": "[14]", "value": 0.4842}, {"measurement": "Array Heatmap signal (histone peptide microarray)", "setting": "[15]", "value": 0.872}, {"measurement": "Array Heatmap signal (histone peptide microarray)", "setting": "[16]", "value": 0.3783}, {"measurement": "Array Heatmap signal (histone peptide microarray)", "setting": "[17]", "value": 0.5902}, {"measurement": "Array Heatmap signal (histone peptide microarray)", "setting": "[18]", "value": 0.5474}, {"measurement": "Array Heatmap signal (histone peptide microarray)", "setting": "[19]", "value": 0.5995}, {"measurement": "Array Heatmap signal (histone peptide microarray)", "setting": "[20]", "value": 0.5616}, {"measurement": "Array Heatmap signal (histone peptide microarray)", "setting": "[21]", "value": 0.3909}, {"measurement": "Array Heatmap signal (histone peptide microarray)", "setting": "[22]", "value": 0.6558}, {"measurement": "Array Heatmap signal (histone peptide microarray)", "setting": "[23]", "value": 0.6379}, {"measurement": "Array Heatmap signal (histone peptide microarray)", "setting": "[24]", "value": 0.6139}, {"measurement": "Array Heatmap signal (histone peptide microarray)", "setting": "[25]", "value": 0.5275}, {"measurement": "Array Heatmap signal (histone peptide microarray)", "setting": "[26]", "value": 0.6974}, {"measurement": "Array Heatmap signal (histone peptide microarray)", "setting": "[27]", "value": 0.6756}, {"measurement": "Array Heatmap signal (histone peptide microarray)", "setting": "[28]", "value": 0.4842}, {"measurement": "Array Heatmap signal (histone peptide microarray)", "setting": "[29]", "value": 0.2881}, {"measurement": "Array Heatmap signal (histone peptide microarray)", "setting": "[30]", "value": 0.5358}]}, {"substance": "H3K4me3 + S10p: H3 1-20", "values": [{"measurement": "Array Heatmap signal (histone peptide microarray)", "setting": "[1]", "value": 0.6416}, {"measurement": "Array Heatmap signal (histone peptide microarray)", "setting": "[2]", "value": 0.4961}, {"measurement": "Array Heatmap signal (histone peptide microarray)", "setting": "[3]", "value": 0.4865}, {"measurement": "Array Heatmap signal (histone peptide microarray)", "setting": "[4]", "value": 0.6326}, {"measurement": "Array Heatmap signal (histone peptide microarray)", "setting": "[5]", "value": 0.6728}, {"measurement": "Array Heatmap signal (histone peptide microarray)", "setting": "[6]", "value": 0.9343}, {"measurement": "Array Heatmap signal (histone peptide microarray)", "setting": "[7]", "value": 0.7298}, {"measurement": "Array Heatmap signal (histone peptide microarray)", "setting": "[8]", "value": 0.6968}, {"measurement": "Array Heatmap signal (histone peptide microarray)", "setting": "[9]", "value": 0.4961}, {"measurement": "Array Heatmap signal (histone peptide microarray)", "setting": "[10]", "value": 0.4888}, {"measurement": "Array Heatmap signal (histone peptide microarray)", "setting": "[11]", "value": 0.6944}, {"measurement": "Array Heatmap signal (histone peptide microarray)", "setting": "[12]", "value": 0.5979}, {"measurement": "Array Heatmap signal (histone peptide microarray)", "setting": "[13]", "value": 0.4497}, {"measurement": "Array Heatmap signal (histone peptide microarray)", "setting": "[31]", "value": 0.3516}, {"measurement": "Array Heatmap signal (histone peptide microarray)", "setting": "[14]", "value": 0.4924}, {"measurement": "Array Heatmap signal (histone peptide microarray)", "setting": "[15]", "value": 0.823}, {"measurement": "Array Heatmap signal (histone peptide microarray)", "setting": "[16]", "value": 0.4763}, {"measurement": "Array Heatmap signal (histone peptide microarray)", "setting": "[18]", "value": 0.8699}, {"measurement": "Array Heatmap signal (histone peptide microarray)", "setting": "[19]", "value": 0.7051}, {"measurement": "Array Heatmap signal (histone peptide microarray)", "setting": "[20]", "value": 0.7399}, {"measurement": "Array Heatmap signal (histone peptide microarray)", "setting": "[21]", "value": 0.452}, {"measurement": "Array Heatmap signal (histone peptide microarray)", "setting": "[22]", "value": 0.8974}, {"measurement": "Array Heatmap signal (histone peptide microarray)", "setting": "[23]", "value": 0.7902}, {"measurement": "Array Heatmap signal (histone peptide microarray)", "setting": "[24]", "value": 0.6387}, {"measurement": "Array Heatmap signal (histone peptide microarray)", "setting": "[25]", "value": 0.6926}, {"measurement": "Array Heatmap signal (histone peptide microarray)", "setting": "[26]", "value": 0.7367}, {"measurement": "Array Heatmap signal (histone peptide microarray)", "setting": "[27]", "value": 0.8088}, {"measurement": "Array Heatmap signal (histone peptide microarray)", "setting": "[28]", "value": 0.5113}, {"measurement": "Array Heatmap signal (histone peptide microarray)", "setting": "[29]", "value": 0.5128}, {"measurement": "Array Heatmap signal (histone peptide microarray)", "setting": "[30]", "value": 0.5974}]}]}
